According to US6783949B1, “Processes for determining whether a test substance contains lipases or lipase inhibitors” (Aventis Pharma Deutschland GmbH, priority 1999, dated 2004):

Molecular target: T1, lipases, preferably HSL (Rattus norvegicus, UniProt P15304)
T1 sequence (P15304 1-768 isoform P15304-2): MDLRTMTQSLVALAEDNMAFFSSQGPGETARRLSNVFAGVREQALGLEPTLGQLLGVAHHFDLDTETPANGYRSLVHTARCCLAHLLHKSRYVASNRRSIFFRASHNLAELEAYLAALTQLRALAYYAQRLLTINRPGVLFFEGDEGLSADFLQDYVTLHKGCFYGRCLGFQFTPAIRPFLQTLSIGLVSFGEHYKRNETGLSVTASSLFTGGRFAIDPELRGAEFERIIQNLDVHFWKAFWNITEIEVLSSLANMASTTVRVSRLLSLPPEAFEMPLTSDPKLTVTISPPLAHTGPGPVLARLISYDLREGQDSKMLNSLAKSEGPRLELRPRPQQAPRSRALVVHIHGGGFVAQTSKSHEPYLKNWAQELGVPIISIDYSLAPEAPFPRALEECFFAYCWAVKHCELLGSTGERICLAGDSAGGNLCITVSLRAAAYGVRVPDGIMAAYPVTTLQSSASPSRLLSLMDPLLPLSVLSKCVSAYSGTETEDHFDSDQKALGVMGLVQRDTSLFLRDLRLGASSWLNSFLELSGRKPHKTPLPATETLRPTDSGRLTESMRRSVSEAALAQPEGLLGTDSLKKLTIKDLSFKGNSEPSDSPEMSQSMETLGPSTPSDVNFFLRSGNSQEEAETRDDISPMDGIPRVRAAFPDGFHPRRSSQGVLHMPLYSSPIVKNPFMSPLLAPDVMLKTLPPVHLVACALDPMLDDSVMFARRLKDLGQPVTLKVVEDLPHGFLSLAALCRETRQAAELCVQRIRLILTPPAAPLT
Experiment: Synthesized NBD-acylglycerides as substrates of lipases
Assay type: biochemical

CCCCCC(=O)OCC(COC(=O)CCCCCCCCCCCNc1ccc([N+](=O)[O-])c2nonc12)OC(=O)CCCCC (centres unmarked) [Compound (5), 2-Hexanoyloxy-3-[12-(7-nitrobenzo[1,2,5]oxadiazol-4-ylamino)-dodecanoyloxy]propyl hexanoate]
Activity as substrate of lipases: decrease in activity

CCCCCCCCCCCCCCCC(=O)OCC(COC(=O)CCCCCCCCCCCNc1ccc([N+](=O)[O-])c2nonc12)OC(C)=O (centres unmarked) [Compound (7), 2-Acetyloxy-3-[12-(7-nitrobenzo[1,2,5]oxadiazol-4-ylamino)-dodecanoyloxy]propyl hexadecanoate]
Activity as substrate of lipases: decrease in activity
